Experiment [1] has as its system biofilms of Pseudomonas aeruginosa (ATCC 15442). Kind of experiment: MBEC (minimum biofilm eradication concentration) test, 96-peg Calgary biofilm device. The experiment is classed as cell-based.
For experiment [2], the system named is biofilm-associated Legionella. The note with it: cited from earlier work.
In a further experiment the test system is 21-day old biofilms. The note with it: 1 mg/L free residual; 30° C.; cited from earlier work.
A further experiment has as its system Legionella pneumophila. The note with it: 1 mg/L for 24 hours; either metal surface; cited from earlier work.
Experiment [3] has as its system biofilm bacteria. Particulars: 1 ppm residuals; cited from earlier work.
Experiment [4] concerns biofilms consisting of a consortium of Legionella, heterotrophic bacteria and amoebae. The note with it: cited from earlier work.
Experiment [5] concerns biofilm bacteria. Particulars: 1.5 mg/L applied continuously for 18 hours; cited from earlier work.
The subject of another experiment is sessile bacteria. The note with it: pH 9; cited from earlier work.
For experiment [6], the system named is biofilms of Sphaerotilus natans. The note with it: dynamic tests; maximum applied dose 20 ppm; cited from earlier work.
Experiment [7] concerns biofilm bacteria. Particulars: cited from earlier work.
The test system of experiment [8] is HPC Bacteria (planktonic and biofilm). Kind of experiment: Laboratory model water system, 48-hour biocide challenge and 14-day recovery: HPC bacteria. The experiment is classed as cell-based.
The subject of a further experiment is 3-day biofilms. The note with it: cited from earlier work.
[9] abbreviates: 1-day biofilm, one hour contact time, average, halogen biocides as Cl2, others as active ingredient.
Where [10] appears, read: 1-day biofilm, one hour contact time, individual determinations, halogen biocides as Cl2, others as active ingredient.
The mark [11] stands for this setting: 7-day biofilm, one hour contact time, average, halogen biocides as Cl2.
[12] abbreviates: maximum log reduction, typically 2-12 hours after biocide application.
Where [13] appears, read: relative to control after the 14-day recovery period.

Where “and” joins values, the source holds several entries; their conditions need not be identical. Identical values can stand only once. Like-named read-outs stand apart in the source and are kept apart here.

As to `N#CC(Br)(Br)C(N)=O` [DBNPA, Dibromonitrilopropionamide], in experiment [1] (setting [9]), the “1-Day Biofilm MBEC, avg.” value is recorded as 3.1 ppm. Also, the “1-Day Biofilm MBEC, ppm” value in [1] (setting [10]) was 2.0 ppm and 4.1 ppm. Further, the “effect on levels of biofilm-associated Legionella” value (“effect on levels” for short) in experiment [2] is recorded as “non detectable levels”.
Regarding `CC1(C)C(=O)N(Cl)C(=O)N1Br` [BCDMH, 1-bromo-3-chloro-5,5-dimethylhydantoin], in [1], the “1-Day Biofilm MBEC, avg.” value was determined as 2.5 ppm; the “1-Day Biofilm MBEC, ppm” value is 2.5, 2.5 ppm; the “7-Day Biofilm MBEC, ppm” value is 5, 10 ppm. For the same compound, the “7-Day Biofilm MBEC, avg.” value in experiment [1] (setting [11]) stood at 7.5 ppm. Besides, in the experiment on 21-day old biofilms, the “reduction of biofilm counts on mild steel” value is 1.4 logs and the “reduction of biofilm counts on stainless steel” value is reported as 2.0 logs. In the experiment with Legionella pneumophila, the “viable Legionella recovered from the biofilms” value was “no viable Legionella were recovered”. Also, in the experiment on biofilm bacteria [3], the “log kill of biofilm bacteria” value was 1 log. Moreover, the “efficacy against biofilm-associated heterotrophic bacteria and Legionella” value in experiment [4] is on record as “also effective but was slower acting”.
As to `[O][Cl+][O-]` [ClO2, Chlorine dioxide], the “reduction of biofilm bacteria” value in the experiment with biofilm bacteria [5] is listed as 99.4%.
In the case of `O=S(=O)([O-])[O-].OC[P+](CO)(CO)CO.OC[P+](CO)(CO)CO` [THPS], the “log reductions in sessile bacteria / biofilm counts” value with sessile bacteria is given as 2 log.
Take `CCCCCCCCCCSCCN.Cl` [DTEA, decylthioethaneamine hydrochloride]: the “1-Day Biofilm MBEC, avg.” value in [1] (setting [9]) is 100 ppm. Besides, the “1-Day Biofilm MBEC, ppm” value in experiment [1] (setting [10]) is given as 100, 100 ppm.
In the case of `OBr` [HOBr, hypobromous acid], the “treatment level for biofilm control (but not eradication)” value (“treatment level … (but not eradication)” for short) in [6] is on record as 15 ppm.
Turning to `OO` [H2O2, hydrogen peroxide], in experiment [1], the “1-Day Biofilm MBEC, avg.” value was greater than 200 ppm and the “1-Day Biofilm MBEC, ppm” value is on record as >100, >100 ppm. The “log reductions in sessile bacteria / biofilm counts” value with sessile bacteria was 2 log.
Consider `[Na+].[O-]Cl` [Bleach, NaOCl], for which, in experiment [1], the “1-Day Biofilm MBEC, avg.” value was 3.8 ppm; the “1-Day Biofilm MBEC, ppm” value is listed as 5.0, 2.5 ppm; the “7-Day Biofilm MBEC, avg.” value is listed as 20 ppm; the “7-Day Biofilm MBEC, ppm” value is 20, 20 ppm.
Regarding `CCC1(C)C(=O)N(Cl)C(=O)N1Br` (centres unmarked) [BrMEH, bromo-chloro-methylethylhydantoin], the “treatment level … (but not eradication)” value in experiment [6] is listed as 10 ppm. Further, in the experiment with biofilm bacteria [3], the “log kill of biofilm bacteria” value is 0.7 log.
As for `OCl` [HOCl, Hypochlorous acid], in [6], the “treatment level … (but not eradication)” value is on record as greater than 20 ppm.
Turning to `BrBr` [bromine], the “log reductions of biofilm bacteria” value in the experiment on biofilm bacteria [7] was roughly 3 log. Besides, the “effect on levels” value in experiment [2] was “non detectable levels”.
Turning to `O=[O+][O-]` [ozone], the “effect on levels” value in [2] is given as “did not appear to significantly affect”.
As for `O=c1n(Cl)c(=O)n(Cl)c(=O)n1Cl` [Trichlor, 1,3,5-trichloroisocyanuric acid], in experiment [1], the “1-Day Biofilm MBEC, avg.” value was 1.9 ppm; the “1-Day Biofilm MBEC, ppm” value is 2.5, 1.2 ppm; the “7-Day Biofilm MBEC, avg.” value turned out to be 20 ppm; the “7-Day Biofilm MBEC, ppm” value was 20, 20 ppm.
As for `CC1(C)C(=O)N(Br)C(=O)N1Br` [DBDMH, 1-3-dibromo-5,5-dimethylhydantoin], in [1], the “1-Day Biofilm MBEC, avg.” value was 1.2 ppm; the “1-Day Biofilm MBEC, ppm” value is given as 1.2 ppm; the “7-Day Biofilm MBEC, avg.” value is recorded as 5 ppm; the “7-Day Biofilm MBEC, ppm” value is listed as 5, 5 ppm. The same compound displayed an MBEC in [1] of 1.4 mg/L. Also, in experiment [8] (setting [12]), the “Log Reduction, HPC Bacteria, Biofilm” value was 2.7 log and the “Log Reduction, HPC Bacteria, Planktonic” value stood at 3.6 log. Moreover, in experiment [8] (setting [13]), the “Log Reduction, HPC Bacteria, Biofilm” value is listed as 0.4 log and the “Log Reduction, HPC Bacteria, Planktonic” value came out at 0.2 log.
Turning to `CC(=O)OO` [Peracetic Acid, peracetic acid], the “1-Day Biofilm MBEC, avg.” value in experiment [1] (1-day biofilm, four-hour contact time, average (est.)) is roughly 150 ppm. Moreover, the “1-Day Biofilm MBEC, ppm” value in experiment [1] (1-day biofilm, four-hour contact time, individual determinations, active ingredient) is given as 100, >100 ppm.
In the case of `O=CCCCC=O` [Glutaraldehyde, glutaraldehyde], the “1-Day Biofilm MBEC, avg.” value in experiment [1] (setting [9]) came out at 50 ppm. The “1-Day Biofilm MBEC, ppm” value in experiment [1] (setting [10]) is recorded as 50, 50 ppm. Further, the “7-Day Biofilm MBEC, avg.” value in [1] (setting [11]) was roughly 200 ppm. In addition, in experiment [1] (7-day biofilm, one hour contact time, individual determinations, halogen biocides as Cl2), the “7-Day Biofilm MBEC, ppm” value is 100 ppm and > 200 ppm. The “"no effect" level on biofilm removal” value with 3-day biofilms is on record as 20 ppm. Also, the “log reductions in sessile bacteria / biofilm counts” value in the experiment on sessile bacteria was 2 log. Besides, the “effect on levels” value in experiment [2] is recorded as “non detectable levels”. Also, in experiment [4], the “efficacy against biofilm-associated heterotrophic bacteria and Legionella” value is “effective”.

The record behind these values is US20090178587A9, “Control of biofilms in industrial water systems” (priority 2001, published 2009).
